Experimental data as given in US6126909A, “Process and apparatus for the production of BI-212 and a use thereof” (Arch Development Corporation, priority 1999, dated 2000).
Where “and” joins values, the source holds several entries; their conditions need not be identical. Identical values can stand only once. Entries after “also recorded” stand apart in the source; their conditions may differ.

Assays:
[1] = system: NIH:OVCAR-3 cells; assay: In vitro irradiation survival (clonogenic), monolayer; assay type: cell-based, human; conditions: OVCAR-3 monolayer
Method: (§1) In vitro studies were carried out using three well known cell lines, the cells from which were exposed to radiation from: (1) an X-ray source; (2) P-32 chromic phosphate; and (3) Bi-212 chloride. The three cell lines that were used are V-79, which is a Chinese hamster lung fibroblast, Ehrlich-Lettre Ascites carcinoma (ATCC CCL 77), which is an ascites producing -tumor, and NIH:OVCAR-3 (ATCC HTB 161), which is a human ovarian adenocarcinoma. These well known cell lines are predictive of what happens in vivo. The cells were grown as monolayers and into spheroid formations and subsequently irradiated, as described herein.
The V-79 cells were maintained under exponential growth conditions in minimal essential medium (MEM) supplemented with 10 percent fetal bovine serum. The Ehrlich-Lettre Ascites carcinoma cells were maintained in 90 percent NCTC 109 supplemented with 10 percent fetal bovine serum. The NIH:OVCAR-3 cells were maintained in RPMI 1640 and 10 percent fetal bovine serum.
Cells from each of the cell lines were irradiated by subjecting the cells to X-ray radiation, P-32, and Bi-212. The X-ray source that was used is a General Electric 250 kvp Maxitron, 26 […] (mA) (HVL 1.5 mm Cu) operated at a dose rate of 1.11 Greys per minute (Gy/min). The cells, in both monolayer and spheroid form were exposed at room temperature and then immediately plated for survival.
Cells in both monolayer and spheroid were exposed to P-32 chromic phosphate. The radiation dose to each sample was calculated as: […]
After exposure, the cells were washed in phosphate-buffered saline (PBS) and immediately plated for survival.
The cell lines were also irradiated using Bi-212. Bismuth-212 was eluted from a generator as described in the aforementioned patent to Atcher et al., which was a cation-exchange column supporting Ra-224, with 1 ml of 0.15 N HI, and the generator was purged with 2 ml of distilled deionized water. […] The filter was purged with 1 ml of distilled deionized water, and the radioactivity was assayed using a calibrated 3×3-in. […]
(§2) Cells were exposed over a period of four hours. The dose (D) per microCurie was calculated and corrected for decay as follows: [formula] where V=volume in milliliters, and […]
(§3) Following plating, survival measurements were taken for each of the irradiated cell samples. […] The plates were then stained with crystal violet and colonies greater than 50 cells were scored. The surviving fraction was then determined.
Intrinsic radiosensitivity (Do) was calculated from the survival curves. […] Relative biological effectiveness (RBE) was determined as the ratio of the absorbed dose of X-ray to that of alpha radiation to produce the same degree of biological effect.

[2] = system: Ehrlich-Lettre Ascites carcinoma cells; assay: as above; assay type: cell-based; conditions: dose increment reducing survival to 37 percent
Method: as §1, with “herein. […]” for “herein.”
The cell lines were also irradiated using Bi-212. […] The filter was purged with 1 ml of distilled deionized water, and the radioactivity was assayed using a calibrated 3×3-in. […]
as §2, §3
Intrinsic radiosensitivity (Do) was calculated from the survival curves. […]

[3] = Biodistribution after intraperitoneal instillation; assay type: in vivo, rabbit
Method: (§4) In vivo studies were conducted to determine the distribution of Bi-212 produced using the above-noted process and to compare the Bi-212 distribution to the distribution of Pb-212 ferrous hydroxide in colloidal form. The in vivo studies were conducted using white, female New Zealand rabbits weighing about 4.5 kilograms ([…]) each. Studies were also conducted using rabbits to determine the toxicity levels, e.g., the maximum tolerated dose. Efficacy studies were conducted using 25 gram (gm) female Swiss-Webster mice inoculated with Ehrlich-Lettre Ascites carcinoma cells.
The rabbits were first anesthetized by intravenous titration. A polyethylene catheter was then inserted into the lower right quadrant of the rabbits' abdominal cavities and a trace amount of technetium-99m pertechnetate was instilled to confirm that the catheter was correctly placed.
(§5) Groups of rabbits were instilled with a varying amounts (correlating to varying activities) of Bi-212 that were prepared in accordance with the before-described process, neutralized to pH values of between 5.0 and 7.4, and had added thereto a quantity of normal saline to make a 200 cc sample. To compare the distribution of Bi-212, Pb-212 ferrous hydroxide was prepared in accordance with known methods. Rotmensch et al., Gynecol. Oncol., 35:297-300 (1989). Groups of rabbits were also instilled with the Pb-212 ferrous hydroxide preparation.
After instillation, the rabbits were rotated and imaged with a gamma camera set at 2.6 MeV. Where localization of the nuclide was identified in the rabbits, the rabbits were sacrificed and the localized area was excised and photographed.
Of the groups of rabbits instilled with the Bi-212 solution, a rabbit was imaged and necropsied at each of one-half hour, one hour and three hours after instillation. The percent injected activity (%IA) in each organ was measured to determine the distribution of the Bi-212(Table 6). To determine whether chelating to DTPA improved the retention of Bi-212 in the peritoneal fluid, a group of rabbits was instilled with Bi-212 DTPA, and was imaged and necropsied at three hours following instillation. The percent activity remaining in the peritoneal fluid was measured.

[4] = Toxicity studies, intraperitoneal graded doses; assay type: in vivo, rabbit
Method: as §4
The peritoneal cavities of rabbits were instilled with graded doses of Bi-212. The rabbits were followed until death or for up to three months after their blood counts normalized. The rabbits were necropsied at death or termination of the study and their organs were microscopically examined to determine the effect of the Bi-212 on healthy organs.

[5] = Distribution in peritoneal cavity (imaging and necropsy); assay type: in vivo, rabbit; conditions: rabbits
Method: as §4
as §5, with “Groups of rabbits were also instilled with the Pb-212 ferrous hydroxide preparation.” left out
Of the groups of rabbits instilled with the Bi-212 solution, a rabbit was imaged and necropsied at each of one-half hour, one hour and three hours after instillation. The percent injected activity (%IA) in each organ was measured to determine the distribution of the Bi-212(Table 6). […] The percent activity remaining in the peritoneal fluid was measured.

[6] = 1/2 hour after intraperitoneal instillation
[7] = 1 hour after intraperitoneal instillation
[8] = 3 hours after intraperitoneal instillation

For [212Bi] [Bi-212, bismuth-212], the “D0 (intrinsic radiosensitivity)” value ([1]; dose increment reducing survival to 37 percent) was 0.75 Gy, the “Relative biological effectiveness (RBE)” value ([1]; relative to X-ray) was 3.19 and the “D0 (intrinsic radiosensitivity)” value [2] was 0.65 Gy. For the same compound, the Peritoneal fluid [3, 6] was 85.0 % IA and 70.3 % IA and 90.1 % IA, the Stomach [3, 6] was 0.26 % IA and 0.34 % IA and the “Lower intestine & colon” value [3, 7] was 0.87 % IA. The Peritoneal fluid [3, 7] was 85.7 % IA and 85.1 % IA and 88 % IA, the Stomach [3, 7] was 0.09 % IA and the Circulating blood [3, 8] was 3.4 % IA and 1.86 % IA and 2.96 % IA. The Kidney [3, 8] was 2.15 % IA and 1.21 % IA and 2.10 % IA, the Liver [3, 8] was 2.26 % IA and 2.25 % IA and 1.17 % IA and the “Lower intestine & colon” value [3, 8] was 7.14 % IA and 5.87 % IA and 9.14 % IA. The Peritoneal fluid [3, 8] was 75.8 % IA and 80.2 % IA and 83.8 % IA, the Reproductive organs [3, 8] was 0.53 % IA and 0.61 % IA and 0.59 % IA and the Stomach [3, 8] was 0.90 % IA and 0.76 % IA and 0.59 % IA. For the same compound, the Upper small intestine [3, 8] was 8.04 % IA and 6.63 % IA and 9.73 % IA, the “Microscopic examination of organs” value ([4]; 60 mCi, three months after instillation) was “only mild blunting of intestinal villi” and the “Histology, small and large intestines” value ([4]; 80 mCi) was “marked individual cell necrosis of gland epithelium of the small and large intestines”. The Survival ([4]; 80 mCi) was “survived about three days”, the Histology ([4]; 100 mCi) was “diffuse epithelial necrosis” and the Survival ([4]; 100 mCi) was “survived about three days”. For the same compound, the Mortality ([4]; doses greater than 60 mCi) was “death within three days”, the Maximum dose tolerated ([4]; rabbits, intraperitoneal) was 60 mCi and the “Distribution in peritoneal cavity/fluid” value ([5]; intraperitoneal instillation) was “even distribution within the peritoneal fluid; also recorded: relatively even”. For the same compound, the “Clumping / localized activity in peritoneal cavity” value ([5]; imaging up to 3 hours or necropsy) was “no clumping; i.e., no localized activity in the peritoneal cavity up to 3 hours after instillation”.
